Experimental data: patent EP2832223A1, “HERBICIDAL COMPOSITION” (Ishihara Sangyo Kaisha, Ltd., priority 2012, dated 2013)

Legend:
Format in all cases: in vivo
[1] = test system: velvetleaf (Abutilon theophrasti Medic.); experiment: Test Example 16: pot test, soil and foliar treatment, visual growth inhibition; details: soil treatment and foliar treatment, 29th day after treatment, read-out: Growth inhibition rate (%) of velvetleaf Measured value
Text: Upland field soil was put into a 1/1,000,000 ha pot, and seeds of velvetleaf (Abutilon theophrasti Medic.) were sown. When the velvetleaf reached 4.0 to 4.3-leaf stage, seeds of velvetleaf were further sown in the same pot assuming conditions such that weeds would later grow. Three days later, predetermined amounts of ONEHOPE NYUZAI (tradename), Click (tradename), Callisto (tradename), Mikado (tradename), a wettable powder containing bicyclopyrone as an active ingredient and Clio (tradename) were diluted with water in an amount corresponding to 300 L/ha and applied for soil treatment and for foliar treatment by a small sprayer.
(§1) On the 29th day after treatment, the state of growth of the velvetleaf was visually observed to determine the growth inhibition rate (%). The growth inhibition rate (%) (measured value) and the growth inhibition rate (%) calculated in the same manner as in the above Test Example 1 are shown in Table 16.

[2] = test system: guinea grass (Panicum maximum Jacq.); experiment: Test Example 15: pot test, soil and foliar treatment, visual growth inhibition; details: Megathyrsus maximus, 31st day after treatment, read-out: Growth inhibition rate (%) of guinea grass Measured value
Protocol: Upland field soil was put into a 1/1,000,000 ha pot, and seeds of guinea grass (Panicum maximum Jacq.) were sown. When the guinea grass reached 5.2 to 6.0-leaf stage, seeds of guinea grass were further sown in the same pot assuming conditions such that weeds would later grow. On the next day, predetermined amounts of ONEHOPE NYUZAI (tradename), Click (tradename), Spectrum (tradename) and Cadou (tradename) were diluted with water in an amount corresponding to 300 L/ha and applied for soil treatment and for foliar treatment by a small sprayer.
as §1, with “31 st” for “29th”, “guinea grass” for “velvetleaf”, “15.” for “16.”

[3] = test system: Japanese millet (Echinochloa utilis Ohwi et Yabuno); experiment: Test Example 9: pot test, soil treatment, visual growth inhibition; details: soil treatment, 28th day after treatment, read-out: Growth inhibition rate (%) of Japanese millet Measured value
Protocol: Upland field soil was put into a 1/300,000 ha pot, and seeds of Japanese millet (Echinochloa utilis Ohwi et Yabuno) were sown. On the next day, predetermined amounts of ONEHOPE NYUZAI (tradename), Click (tradename), Mikado (tradename) and a wettable powder containing bicyclopyrone prepared in accordance with a conventional formulation method were diluted with water (in an amount corresponding to 1,000 L/ha) and applied for soil treatment by a small sprayer.
as §1, with “28th” for “29th”, “Japanese millet” for “velvetleaf”, “9.” for “16.”

Row | Compound | inhibition at 500 g/ha ([1]; 500 g/ha) | inhibition at 1000 g/ha ([1]; 1000 g/ha) | inhibition at 400 g/ha ([2]; 400 g/ha) | inhibition at 1200 g/ha ([2]; 1200 g/ha) | inhibition at 2000 g/ha ([3]; 2000 g/ha) | inhibition at 30 g/ha ([1]; 30 g/ha) | inhibition at 20 g/ha ([2]; 20 g/ha) | inhibition at 60 g/ha ([2]; 60 g/ha) | inhibition at 10 g/ha ([3]; 10 g/ha)
1 | CCNc1nc(Cl)nc(NC(C)(C)C)n1 [Terbuthylazine, N^2-tert-butyl-6-chloro-N^4-ethyl-1,3,5-triazine-2,4-diamine] | 15% | 18% | 5% | 23% | 65% | – | – | – | –
2 | COc1cc(OC)nc(NC(=O)NS(=O)(=O)c2ncccc2C(=O)N(C)C)n1 [Nicosulfuron, 2-(4,6-dimethoxypyrimidin-2-ylcarbamoylsulfamoyl)-N,N-dimethylnicotinamide] | – | – | – | – | – | 0% | 46% | 83% | 0%
